Source: patent publication US10687531B2, “Urea and thiourea substituted bicycles derivatives as pesticides” (SYNGENTA PARTICIPATIONS AG, priority 2016, dated 2020)

What was measured:
Plutella xylostella = test: Example B2: Plutella xylostella (diamond back moth), artificial diet, L2 larvae; assay type: in vivo; details: 120 h, application rate 200 ppm, 5 days after infestation, read-out: effect in at least one of the two categories (mortality or growth inhibition)
Procedure: Example B2: Plutella xylostella (Diamond Back Moth)
(§1) 24-well microtiter plates with artificial diet were treated with aqueous test solutions prepared from 10,000 ppm DMSO stock solutions by pipetting. After drying, the plates were infested with L2 larvae (10 to 15 per well). The samples were assessed for mortality and growth inhibition in comparison to untreated samples 5 days after infestation.

Diabrotica balteata = test: Example B3: Diabrotica balteata (corn root worm), maize sprouts, L2 larvae; assay type: in vivo; details: 96 h, application rate 200 ppm, 4 days after infestation, read-out: effect in at least one of the two categories (mortality or growth inhibition)
Procedure: Example B3: Diabrotica balteata (Corn Root Worm)
as §1, with “Maize sprouts, placed on an agar layer in 24-well” for “24-well”, “plates” for “plates with artificial diet”, “spraying.” for “pipetting.”, “(6” for “(10”, “10” for “15”, “4” for “5”

Spodoptera littoralis = test: Example B1: Spodoptera littoralis (Egyptian cotton leaf worm), cotton leaf disc spray, L1 larvae; assay type: in vivo; details: foliar, 72 h, application rate 200 ppm, 3 days after infestation, read-out: control (at least one of mortality, anti-feedant effect, growth inhibition)
Procedure: Example B1: Spodoptera littoralis (Egyptian Cotton Leaf Worm)
Cotton leaf discs were placed on agar in 24-well microtiter plates and sprayed with aqueous test solutions prepared from 10,000 ppm DMSO stock solutions. After drying, the leaf discs were infested with five L1 larvae. The samples were assessed for mortality, anti-feedant effect, and growth inhibition in comparison to untreated samples 3 days after infestation. Control of Spodoptera littoralis by a test sample is when at least one of mortality, anti-feedant effect, and growth inhibition is higher than the untreated sample.

[1] = system: Frankliniella occidentalis; test: Example B6: Frankliniella occidentalis (western flower thrips), sunflower leaf disc spray; assay type: in vivo; details: foliar, 168 h, application rate 200 ppm, 7 days after infestation, mixed ages
Procedure: Example B6: Frankliniella occidentalis (Western Flower Thrips)
(§2) Sunflower leaf discs were placed on agar in 24-well microtiter plates and sprayed with aqueous test solutions prepared from 10,000 DMSO stock solutions. After drying the leaf discs were infested with a Frankliniella population of mixed ages. The samples were assessed for mortality 7 days after infestation.

Thrips tabaci = test: Example B5: Thrips tabaci (onion thrips), sunflower leaf disc spray; assay type: in vivo; details: foliar, 144 h, application rate 200 ppm, 6 days after infestation, mixed ages
Procedure: Example B5: Thrips tabaci (Onion Thrips)
as §2, with “10,000 ppm” for “10,000”, “thrips” for “Frankliniella”, “6” for “7”

Euschistus heros = test: Example B4: Euschistus heros, soybean leaf spray, N-2 nymphs; assay type: in vivo; details: 120 h, application rate 200 ppm, 5 days after infestation, read-out: effect in at least one of the two categories (mortality or growth inhibition)
Procedure: Example B4: Euschistus heros
Soybean leaf on agar in 24-well microtiter plates were sprayed with aqueous test solutions prepared from 10,000 ppm DMSO stock solutions. After drying the leaf were infested with N-2 nymphs. The samples were assessed for growth inhibition in comparison to untreated samples 5 days after infestation.

With `CC(C)c1ccccc1NC(=O)Nc1ccc2cc(-c3ncn(-c4ccc(OC(F)(F)F)cc4)n3)ccc2n1` [Compound P1.3, 1-(2-isopropylphenyl)-3-[6-[1-[4-(trifluoromethoxy)phenyl]-1,2,4-triazol-3-yl]-2-quinolyl]urea] as the compound, how does the percent control (mortality or growth inhibition) at 200 ppm (Plutella xylostella) read?
Its percent control (mortality or growth inhibition) at 200 ppm is at least 80%.

What about the percent effect (mortality or growth inhibition) at 200 ppm (Diabrotica balteata) of the same compound?
Its percent effect (mortality or growth inhibition) at 200 ppm is at least 80%.

With `CC(C)c1ccccc1NC(=S)Nc1ccc2cc(-c3ncn(-c4ccc(OC(F)(F)F)cc4)n3)ccc2n1` [Compound P1.4, 1-(2-isopropylphenyl)-3-[6-[1-[4-(trifluoromethoxy)phenyl]-1,2,4-triazol-3-yl]-2-quinolyl]thiourea] as the compound, how does the percent control (mortality or growth inhibition) at 200 ppm (Plutella xylostella) read?
The percent control (mortality or growth inhibition) at 200 ppm was at least 80%.

What about the percent effect (mortality or growth inhibition) at 200 ppm (Diabrotica balteata) of the same compound?
The percent effect (mortality or growth inhibition) at 200 ppm was at least 80%.

What about the control at 200 ppm (Spodoptera littoralis) of the same compound?
The control at 200 ppm was at least 80%.

Which percent control (mortality or growth inhibition) at 200 ppm (Plutella xylostella) does the source give for `CC(C)c1ccccc1N1CS/C1=N\c1ccc2cc(-c3ncn(-c4ccc(OC(F)(F)F)cc4)n3)ccc2n1` [Compound P2.1, 3-(2-isopropylphenyl)-N-[6-[1-[4-(trifluoromethoxy)phenyl]-1,2,4-triazol-3-yl]-2-quinolyl]-1,3-thiazetidin-2-imine] here?
The percent control (mortality or growth inhibition) at 200 ppm was at least 80%.

What about the percent effect (mortality or growth inhibition) at 200 ppm (Diabrotica balteata) of the same compound?
The percent effect (mortality or growth inhibition) at 200 ppm was at least 80%.

And the mortality at 200 ppm [1]?
Its mortality at 200 ppm is at least 80%.

What about the control at 200 ppm (Spodoptera littoralis) of the same compound?
The control at 200 ppm was at least 80%.

Which results are given for `Cc1cs/c(=N\c2ccc3cc(-c4ncn(-c5ccc(OC(F)(F)F)cc5)n4)ccc3n2)n1-c1ccccc1C(C)C` [Compound P2.2, 3-(2-isopropylphenyl)-4-methyl-N-[6-[1-[4-(trifluoromethoxy)phenyl]-1,2,4-triazol-3-yl]-2-quinolyl]thiazol-2-imine]?
percent control (mortality or growth inhibition) at 200 ppm (Plutella xylostella): ≥ 80%; percent effect (mortality or growth inhibition) at 200 ppm (Diabrotica balteata): ≥ 80%; mortality at 200 ppm [1]: ≥ 80%; control at 200 ppm (Spodoptera littoralis): ≥ 80%

With `CC(C)c1ccccc1N1C(=O)CS/C1=N\c1ccc2cc(-c3ncn(-c4ccc(OC(F)(F)F)cc4)n3)ccc2n1` [Compound P2.3, (2Z)-3-(2-isopropylphenyl)-2-[[6-[1-[4-(trifluoromethoxy)phenyl]-1,2,4-triazol-3-yl]-2-quinolyl]imino]thiazolidin-4-one] as the compound, how does the percent control (mortality or growth inhibition) at 200 ppm (Plutella xylostella) read?
Its percent control (mortality or growth inhibition) at 200 ppm is at least 80%.

And the percent effect (mortality or growth inhibition) at 200 ppm (Diabrotica balteata)?
Its percent effect (mortality or growth inhibition) at 200 ppm is at least 80%.

And the mortality at 200 ppm [1]?
The mortality at 200 ppm was at least 80%.

And the control at 200 ppm (Spodoptera littoralis)?
Its control at 200 ppm is at least 80%.

Which percent control (mortality or growth inhibition) at 200 ppm (Plutella xylostella) does the source give for `CC(C)c1ccccc1/N=C1/SCC(=O)N1c1ccc2cc(-c3ncn(-c4ccc(OC(F)(F)F)cc4)n3)ccc2n1` [Compound P2.4, (2E)-2-(2-isopropylphenyl)imino-3-[6-[1-[4-(trifluoromethoxy)phenyl]-1,2,4-triazol-3-yl]-2-quinolyl]thiazolidin-4-one] here?
Its percent control (mortality or growth inhibition) at 200 ppm is at least 80%.

And the percent effect (mortality or growth inhibition) at 200 ppm (Diabrotica balteata)?
Its percent effect (mortality or growth inhibition) at 200 ppm is at least 80%.

And the mortality at 200 ppm [1]?
The mortality at 200 ppm was at least 80%.

What about the mortality at 200 ppm (Thrips tabaci) of the same compound?
The mortality at 200 ppm was at least 80%.

What about the percent effect (mortality or growth inhibition) at 200 ppm (Euschistus heros) of the same compound?
Its percent effect (mortality or growth inhibition) at 200 ppm is at least 80%.

And the control at 200 ppm (Spodoptera littoralis)?
The control at 200 ppm was at least 80%.

With `Cc1cccc(C)c1NC(=O)Nc1ncc2cc(-c3ncn(-c4ccc(OC(F)(F)F)cc4)n3)ccc2n1` [Compound P2.6, 1-(2,6-dimethylphenyl)-3-[6-[1-[4-(trifluoromethoxy)phenyl]-1,2,4-triazol-3-yl]quinazolin-2-yl]urea] as the compound, how does the melting point read?
The melting point was 247 to 249 °C.

With `Cc1cccc(C)c1N1/C(=N/c2ncc3cc(-c4ncn(-c5ccc(OC(F)(F)F)cc5)n4)ccc3n2)SCC1(C)O` (stereo not shown) [Compound P2.7, (2Z)-3-(2,6-dimethylphenyl)-4-methyl-2-[6-[1-[4-(trifluoromethoxy)phenyl]-1,2,4-triazol-3-yl]quinazolin-2-yl]imino-thiazolidin-4-ol] as the compound, how does the percent effect (mortality or growth inhibition) at 200 ppm (Diabrotica balteata) read?
The percent effect (mortality or growth inhibition) at 200 ppm was at least 80%.

What about the percent effect (mortality or growth inhibition) at 200 ppm (Euschistus heros) of the same compound?
Its percent effect (mortality or growth inhibition) at 200 ppm is at least 80%.

Which melting point does the source give for `Cc1cccc(C)c1N1CS/C1=N\c1ncc2cc(-c3ncn(-c4ccc(OC(F)(F)F)cc4)n3)ccc2n1` [Compound P2.8, 3-(2,6-dimethylphenyl)-N-[6-[1-[4-(trifluoromethoxy)phenyl]-1,2,4-triazol-3-yl]quinazolin-2-yl]-1,3-thiazetidin-2-imine] here?
The melting point was 227 to 229 °C.

With `Cc1cccc(C)c1N1C(=O)CS/C1=N\c1ncc2cc(-c3ncn(-c4ccc(OC(F)(F)F)cc4)n3)ccc2n1` [Compound P2.9, (2Z)-3-(2,6-dimethylphenyl)-2-[6-[1-[4-(trifluoromethoxy)phenyl]-1,2,4-triazol-3-yl]quinazolin-2-yl]imino-thiazolidin-4-one] as the compound, how does the percent control (mortality or growth inhibition) at 200 ppm (Plutella xylostella) read?
Its percent control (mortality or growth inhibition) at 200 ppm is at least 80%.

And the percent effect (mortality or growth inhibition) at 200 ppm (Diabrotica balteata)?
Its percent effect (mortality or growth inhibition) at 200 ppm is at least 80%.

What about the control at 200 ppm (Spodoptera littoralis) of the same compound?
The control at 200 ppm was at least 80%.

Which percent control (mortality or growth inhibition) at 200 ppm (Plutella xylostella) does the source give for `Cc1cccc(C)c1NC(=S)Nc1cnc2cc(-c3ncn(-c4ccc(OC(F)(F)F)cc4)n3)ccc2n1` [Compound P2.11, 1-(2,6-dimethylphenyl)-3-[6-[1-[4-(trifluoromethoxy)phenyl]-1,2,4-triazol-3-yl]quinoxalin-2-yl]thiourea] here?
The percent control (mortality or growth inhibition) at 200 ppm was at least 80%.

And the percent effect (mortality or growth inhibition) at 200 ppm (Diabrotica balteata)?
Its percent effect (mortality or growth inhibition) at 200 ppm is at least 80%.

What about the control at 200 ppm (Spodoptera littoralis) of the same compound?
The control at 200 ppm was at least 80%.

For `Cc1cccc(C)c1N1CS/C1=N\c1cnc2cc(-c3ncn(-c4ccc(OC(F)(F)F)cc4)n3)ccc2n1` [Compound P2.12, 3-(2,6-dimethylphenyl)-N-[6-[1-[4-(trifluoromethoxy)phenyl]-1,2,4-triazol-3-yl]quinoxalin-2-yl]-1,3-thiazetidin-2-imine], which mortality at 200 ppm [1] is on record?
The mortality at 200 ppm was at least 80%.

And the control at 200 ppm (Spodoptera littoralis)?
Its control at 200 ppm is at least 80%.

For `Cc1cccc(C)c1NC(=S)Nc1ccc2cc(-c3ncn(-c4ccc(OC(F)(F)F)cc4)n3)ccc2c1` [Compound P2.13, 1-(2,6-dimethylphenyl)-3-[6-[1-[4-(trifluoromethoxy)phenyl]-1,2,4-triazol-3-yl]-2-naphthyl]thiourea], which percent control (mortality or growth inhibition) at 200 ppm (Plutella xylostella) is on record?
The percent control (mortality or growth inhibition) at 200 ppm was at least 80%.

And the percent effect (mortality or growth inhibition) at 200 ppm (Diabrotica balteata)?
The percent effect (mortality or growth inhibition) at 200 ppm was at least 80%.

What about the control at 200 ppm (Spodoptera littoralis) of the same compound?
The control at 200 ppm was at least 80%.

Which results are given for `Cc1cccc(C)c1N1CS/C1=N\c1nc2ccc(-c3ncn(-c4ccc(OC(F)(F)F)cc4)n3)cc2s1` [Compound P2.14, 3-(2,6-dimethylphenyl)-N-[6-[1-[4-(trifluoromethoxy)phenyl]-1,2,4-triazol-3-yl]-1,3-benzothiazol-2-yl]-1,3-thiazetidin-2-imine]?
percent control (mortality or growth inhibition) at 200 ppm (Plutella xylostella): ≥ 80%; mortality at 200 ppm (Thrips tabaci): ≥ 80%; control at 200 ppm (Spodoptera littoralis): ≥ 80%

With `Cc1cccc(C)c1/N=C1/SCN1c1nc2ccc(-c3ncn(-c4ccc(OC(F)(F)F)cc4)n3)cc2s1` [Compound P2.15, N-(2,6-dimethylphenyl)-3-[6-[1-[4-(trifluoromethoxy)phenyl]-1,2,4-triazol-3-yl]-1,3-benzothiazol-2-yl]-1,3-thiazetidin-2-imine] as the compound, how does the melting point read?
Its melting point is over 250 °C.

For `Cc1cccc(C)c1NC(=S)Nc1nc2ccc(-c3ncn(-c4ccc(OC(F)(F)F)cc4)n3)cc2s1` [Compound P2.17, 1-(2,6-dimethylphenyl)-3-[6-[1-[4-(trifluoromethoxy)phenyl]-1,2,4-triazol-3-yl]-1,3-benzothiazol-2-yl]thiourea], which percent control (mortality or growth inhibition) at 200 ppm (Plutella xylostella) is on record?
The percent control (mortality or growth inhibition) at 200 ppm was at least 80%.

What about the percent effect (mortality or growth inhibition) at 200 ppm (Diabrotica balteata) of the same compound?
Its percent effect (mortality or growth inhibition) at 200 ppm is at least 80%.

What about the percent effect (mortality or growth inhibition) at 200 ppm (Euschistus heros) of the same compound?
Its percent effect (mortality or growth inhibition) at 200 ppm is at least 80%.

What about the control at 200 ppm (Spodoptera littoralis) of the same compound?
Its control at 200 ppm is at least 80%.
